Data taken from paper PMC9850456, “Click-designed vanilloid-triazole conjugates as dual inhibitors of AChE and Aβ aggregation” (RSC Advances, 2023).

Key:
hAChE = target: T1, hAChE (Homo sapiens, UniProt P22303); assay: biochemical; settings: mean ± standard deviation; read-out: IC50 ± SD AChE
T1 construct: purchased BioVision ('Bio Vision, Egypt' [sic]; address 155 S. Milpitas Blvd., Milpitas, CA) K197-100
Protocol: The synthesized compounds were assayed to determine their ability to inhibit hAChE using (K197-100, Bio Vision, Egypt)1. A 96-well plate was used by applying the spectroscopic method of Ellman1, and […]
The compounds were dissolved in a small amount of DMSO to obtain a concentration range of 0.01-10 μM. Each well contained 160 μl of dithiobis-(2-nitrobenzoic acid) (Ellman's reagent, DTNB), 10 μl of the tested compound and 50 μl hAChE solution, while Blank wells contained 160 μl DTNB, 10 μl DMSO, and 50 μl buffer (1 M, pH=8.0, Tris-HCl) . 100% ChE activity (100% activity) contained 160 μl DTNB, 2 μl DMSO, 8 μl buffer and 50 μl hAChE. After 5 min of incubation at 25 […]
Two time points (t1 and t2) in the linear range of the plot were chosen and the corresponding values for the absorbance (OD1 and OD2) were obtained.
The percentage of relative inhibition was calculated from the following equation:
% Relative Inhibition = Slope of[ EC]−Slope of [S] /Slope of[EC ] X100
% Relative Activity = Slope of [S] /Slope of [EC] X100
Where: S, is Sample Screen; EC, is Enzyme Control. […]

Beta-Amyloid (1–42) = target: T2, Beta-Amyloid (1–42) (Homo sapiens, UniProt P05067); assay: biochemical; settings: Aβ aggregation, Thioflavin T; mean ± standard deviation; read-out: IC50 ± SD Aβ42 inhibition
T2 construct: SensoLyte® Thioflavin T Beta-Amyloid (1–42) Aggregation Kit; purchased ANASPEC Inc., Fremont, CA, USA
Protocol: The β-amyloid aggregation inhibition was measured using the fluorometric SensoLyte® Thioflavin T Beta-Amyloid (1–42) Aggregation Kit (ANASPEC Inc., Fremont, CA., USA) according to the manufacturer's instructions. […]
2. In Vitro Amyloid-β Aggregation Assay
Amyloid-β (1–42) aggregation was measured using the SensoLyte ® Thioflavin T β-Amyloid aggregation kit (AnaSpec, Fremont, CA, USA) 2, according to the manufacturer’s instructions. The assay is based on the property of the Thioflavin T dye, the fluorescence of which increases when it is bound to aggregates of amyloid-β (1 –42) peptides. Briefly, Thioflavin T was dissolved in assay buffer [10 mM Phosphate/150 mM NaCl (pH=8.0)] and used at a concentration of 100 μM. Samples were dissolved in assay buffer, 5 μL of the sample and 85 μL of amyloid-β (1–42) were mixed, followed by the addition of 10 μL of 2mM Thioflavin T.
Thioflavin T fluorescence was measured at intervals of 10 min for 2 h, with an excitation /emission =440 […]
All fluorescence readings are expressed in relative fluorescence units (RFU).
Morin was used as a positive control. Experiments were performed in triplicate and averaged, and the percentage of inhibition of amyloid-β aggregation was calculated according to the following equation:
% Relative Inhibition = (RFU of PC - RFU of S)/ ([…]) x 100
Where: PC, is the Peptide Positive Control or Solvent Control; S, is Sample Screen.
IC50 was generated by plotting the values of percent inhibition against their corresponding logarithmic concentration. Best fitted line was determined and IC50 was calculated from its equation.

T2 sequence (P05067 672-713): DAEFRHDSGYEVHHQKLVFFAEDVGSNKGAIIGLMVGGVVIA
T1 sequence (P22303 32-614): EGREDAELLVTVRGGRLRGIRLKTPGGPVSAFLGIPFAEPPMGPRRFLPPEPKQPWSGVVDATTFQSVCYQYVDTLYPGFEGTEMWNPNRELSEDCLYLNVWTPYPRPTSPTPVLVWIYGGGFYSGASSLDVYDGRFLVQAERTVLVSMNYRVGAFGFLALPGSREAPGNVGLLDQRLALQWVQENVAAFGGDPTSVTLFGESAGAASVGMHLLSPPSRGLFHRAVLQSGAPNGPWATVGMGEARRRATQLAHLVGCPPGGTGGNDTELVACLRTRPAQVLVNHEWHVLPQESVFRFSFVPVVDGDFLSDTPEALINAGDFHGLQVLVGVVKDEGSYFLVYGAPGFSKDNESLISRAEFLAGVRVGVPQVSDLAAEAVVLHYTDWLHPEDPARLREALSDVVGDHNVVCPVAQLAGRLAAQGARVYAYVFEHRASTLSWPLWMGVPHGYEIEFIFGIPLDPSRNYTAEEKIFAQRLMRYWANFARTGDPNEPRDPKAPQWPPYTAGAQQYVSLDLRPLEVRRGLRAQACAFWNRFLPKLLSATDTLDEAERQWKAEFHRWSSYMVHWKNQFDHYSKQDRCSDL

SMILES | IC50 (hAChE) | IC50 (Beta-Amyloid (1–42))
COc1cc(Cn2cc(COc3ccc(C=O)cc3OC)nn2)ccc1O [Compound 1, 4-((1-(3-methoxy-4-hydroxybenzyl)-1H-1,2,3-triazol-4-yl)methoxy)-3-methoxybenzaldehyde] | 14.2 ± 0.72 µM | 4.85 ± 0.24 µM
C=CCc1ccc(OCc2cn(Cc3ccc(O)c(OC)c3)nn2)c(OC)c1 [Compound 2, 4-((4-((4-allyl-2-methoxyphenoxy)methyl)-1H-1,2,3-triazol-1-yl)methyl)-2-methoxyphenol] | 26.8 ± 1.35 µM | 22.7 ± 1.14 µM
COc1cc(Cn2cc(COc3ccc(C=CC=O)cc3OC)nn2)ccc1O [Compound 3, 4-((1-(3-methoxy-4-hydroxybenzyl)-1H-1,2,3-triazol-4-yl)methoxy)-3-methoxyphenyl acrylaldehyde] | 5.53 ± 0.28 µM | 2.86 ± 0.14 µM
CCOC(=O)c1ccc(OCc2cn(Cc3ccc(O)c(OC)c3)nn2)c(OC)c1 [Compound 4, 4-((1-(3-methoxy-4-hydroxybenzyl)-1H-1,2,3-triazol-4-yl)methoxy)-3-methoxy-ethyl benzoate] | 2.11 ± 0.12 µM | 1.59 ± 0.08 µM
COc1cc(Cn2cc(COc3ccc(C(=O)O)cc3OC)nn2)ccc1O [Compound 5, 4-((1-(3-methoxy-4-hydroxybenzyl)-1H-1,2,3-triazol-4-yl)methoxy)-3-methoxybenzoic acid] | 2.11 µM | 1.48 ± 0.07 µM
CCOC(=O)C=Cc1ccc(OCc2cn(Cc3ccc(O)c(OC)c3)nn2)c(OC)c1 [Compound 6, ethyl 4-((1-(3-methoxy-4-hydroxybenzyl)-1H-1,2,3-triazol-4-yl)methoxy)-3-methoxyphenyl acrylate] | 2.52 ± 0.13 µM | 3.06 ± 0.15 µM
COc1cc(Cn2cc(COc3ccc(C=CC(=O)O)cc3OC)nn2)ccc1O [Compound 7, 4-((1-(3-methoxy-4-hydroxybenzyl)-1H-1,2,3-triazol-4-yl)methoxy)-3-methoxyphenyl acrylic acid] | 10.6 ± 0.53 µM | 4.48 ± 0.22 µM
COc1cc(Cn2cc(COC(=O)c3ccc(O)c(OC)c3)nn2)ccc1O [Compound 8, (1-(4-hydroxy-3-methoxybenzyl)-1H-1,2,3-triazol-4-yl)methyl 4-hydroxy-3-methoxy benzoate] | 1.2 ± 0.06 µM | 0.95 ± 0.05 µM
COc1cc(/C=C/C(=O)OCc2cn(Cc3ccc(O)c(OC)c3)nn2)ccc1O [Compound 9, (E)-(1-(4-hydroxy-3-methoxybenzyl)-1H-1,2,3-triazol-4-yl)methyl 3-(4-hydroxy-3 methoxyphenyl)acrylate] | 0.47 ± 0.02 µM | 0.31 ± 0.02 µM
